{"source": "patent US9193720B2", "about": "“Pyridin-3-yl acetic acid derivatives as inhibitors of human immunodeficiency virus replication” (priority 2014, dated 2015)", "data": [{"test_system": "NL-RLuc virus", "assay": "Inhibition of HIV Replication (NL-RLuc luciferase reporter virus in MT-2 cells)", "format": "cell-based", "conditions": "Human immunodeficiency virus 1, MT2, 120 h", "in_short": "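Replication-competent virus with Renilla luciferase in place of part of nef, made in 293T cells and titered in MT-2 cells. Infected MT-2 cells grown 5 days with serially diluted compound in RPMI 1640/10% FBS, 10 mM HEPES pH 7.55. Luciferase read-out; EC50 from median effect equation, at least 2 experiments.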", "units": {"EC50": "nM"}, "values": [{"smiles": "Cc1nc(C)c([C@H](OC(C)(C)C)C(=O)O)c(N2CCC(C)(C)CC2)c1-c1cnc(OCCc2ccc(F)cc2)nc1", "note": "[Example 58, (S)-2-(tert-butoxy)-2-(4-(4,4-dimethylpiperidin-1-yl)-5-(2-(4-fluoro-phenethoxy)pyrimidin-5-yl)-2,6-dimethylpyridin-3-yl)acetic acid]", "EC50": 9}, {"smiles": "CCCOc1ccc(-c2c(C)nc(C)c([C@H](OC(C)(C)C)C(=O)O)c2N2CCC(C)(C)CC2)cc1F", "note": "[Example 59, (S)-2-(tert-butoxy)-2-(4-(4,4-dimethylpiperidin-1-yl)-5-(3-fluoro-4-propoxyphenyl)-2,6-dimethylpyridin-3-yl)acetic acid]", "EC50": 21}, {"smiles": "COc1cc(-c2c(C)nc(C)c([C@H](OC(C)(C)C)C(=O)O)c2N2CCC(C)(C)CC2)cc(OC)c1OC", "note": "[Example 60, (S)-2-(tert-butoxy)-2-(4-(4,4-dimethylpiperidin-1-yl)-2,6-dimethyl-5-(3,4,5-trimethoxyphenyl)pyridin-3-yl)acetic acid]", "EC50": 262}, {"smiles": "COc1cc(-c2c(C)nc(C)c([C@H](OC(C)(C)C)C(=O)O)c2N2CCC(C)(C)CC2)ccc1C", "note": "[Example 61, (S)-2-(tert-butoxy)-2-(4-(4,4-dimethylpiperidin-1-yl)-5-(3-methoxy-4-methylphenyl)-2,6-dimethylpyridin-3-yl)acetic acid]", "EC50": 44}, {"smiles": "COc1cccc(-c2c(C)nc(C)c([C@H](OC(C)(C)C)C(=O)O)c2N2CCC(C)(C)CC2)c1", "note": "[Example 62, (S)-2-(tert-butoxy)-2-(4-(4,4-dimethylpiperidin-1-yl)-5-(3-methoxyphenyl)-2,6-dimethylpyridin-3-yl)acetic acid]", "EC50": 166}, {"smiles": "Cc1nc(C)c([C@H](OC(C)(C)C)C(=O)O)c(N2CCC(C)(C)CC2)c1-c1ccc(OC(C)C)c(Cl)c1", "note": "[Example 63, (S)-2-(tert-butoxy)-2-(5-(3-chloro-4-isopropoxyphenyl)-4-(4,4-dimethylpiperidin-1-yl)-2,6-dimethylpyridin-3-yl)acetic acid]", "EC50": 119}, {"smiles": "CCCOc1c(C)cc(-c2c(C)nc(C)c([C@H](OC(C)(C)C)C(=O)O)c2N2CCC(C)(C)CC2)cc1C", "note": "[Example 64, (S)-2-(tert-butoxy)-2-(5-(3,5-dimethyl-4-propoxyphenyl)-4-(4,4-dimethylpiperidin-1-yl)-2,6-dimethylpyridin-3-yl)acetic acid]", "EC50": 26}, {"smiles": "CCOc1ccc(-c2c(C)nc(C)c([C@H](OC(C)(C)C)C(=O)O)c2N2CCC(C)(C)CC2)cc1F", "note": "[Example 65, (S)-2-(tert-butoxy)-2-(4-(4,4-dimethylpiperidin-1-yl)-5-(4-ethoxy-3-fluorophenyl)-2,6-dimethylpyridin-3-yl)acetic acid]", "EC50": 44}, {"smiles": "COc1cc(-c2c(C)nc(C)c([C@H](OC(C)(C)C)C(=O)O)c2N2CCC(C)(C)CC2)ccc1F", "note": "[Example 66, (S)-2-(tert-butoxy)-2-(4-(4,4-dimethylpiperidin-1-yl)-5-(4-fluoro-3-methoxyphenyl)-2,6-dimethylpyridin-3-yl)acetic acid]", "EC50": 141}, {"smiles": "Cc1nc(C)c([C@H](OC(C)(C)C)C(=O)O)c(N2CCC(C)(C)CC2)c1-c1ccc(OCCc2ccc(F)cc2)nc1", "note": "[Example 67, (S)-2-(tert-butoxy)-2-(4-(4,4-dimethylpiperidin-1-yl)-6′-(4-fluorophenethoxy)-2,6-dimethyl-[3,3′-bipyridin]-5-yl)acetic acid]", "EC50": 7}, {"smiles": "Cc1nc(C)c([C@H](OC(C)(C)C)C(=O)O)c(N2CCC(C3CC3)C2)c1-c1ccc(OCCc2ccc(F)cc2)cc1", "note": "(stereo partly drawn) [Example 68, (2S)-2-(tert-butoxy)-2-(4-(3-cyclopropylpyrrolidin-1-yl)-5-(4-(4-fluorophenethoxy)phenyl)-2,6-dimethylpyridin-3-yl)acetic acid]", "EC50": 42}, {"smiles": "Cc1nc(C)c([C@H](OC(C)(C)C)C(=O)O)c(N2CC(F)(F)C2)c1-c1ccc(OCCc2ccc(F)cc2)cc1", "note": "[Example 69, (S)-2-(tert-butoxy)-2-(4-(3,3-difluoroazetidin-1-yl)-5-(4-(4-fluorophenethoxy)phenyl)-2,6-dimethylpyridin-3-yl)acetic acid]", "EC50": 1990}, {"smiles": "Cc1nc(C)c([C@H](OC(C)(C)C)C(=O)O)c(N2CC(C)(C)C2)c1-c1ccc(OCCc2ccc(F)cc2)cc1", "note": "[Example 70, (S)-2-(tert-butoxy)-2-(4-(3,3-dimethylazetidin-1-yl)-5-(4-(4-fluorophenethoxy)phenyl)-2,6-dimethylpyridin-3-yl)acetic acid]", "EC50": 3050}, {"smiles": "Cc1nc(C)c([C@H](OC(C)(C)C)C(=O)O)c(N2CC(C(C)C)C2)c1-c1ccc(OCCc2ccc(F)cc2)cc1", "note": "[Example 71, (S)-2-(tert-butoxy)-2-(5-(4-(4-fluoro-phenethoxy)phenyl)-4-(3-isopropylazetidin-1-yl)-2,6-dimethylpyridin-3-yl)acetic acid]", "EC50": 3190}, {"smiles": "Cc1nc(C)c([C@H](OC(C)(C)C)C(=O)O)c(N2CCC(c3ccccc3)CC2)c1-c1ccc(OCCc2ccc(F)cc2)cc1", "note": "[Example 72, (S)-2-(tert-butoxy)-2-(5-(4-(4-fluorophenethoxy)phenyl)-2,6-dimethyl-4-(4-phenylpiperidin-1-yl)pyridin-3-yl)acetic acid]", "EC50": 744}, {"smiles": "Cc1nc(C)c([C@H](OC(C)(C)C)C(=O)O)c(N2CCC(c3nc(C(C)C)no3)CC2)c1-c1ccc(OCCc2ccc(F)cc2)cc1", "note": "[Example 73, (S)-2-(tert-butoxy)-2-(5-(4-(4-fluorophenethoxy)phenyl)-4-(4-(3-isopropyl-1,2,4-oxadiazol-5-yl)piperidin-1-yl)-2,6-dimethylpyridin-3-yl)acetic acid]", "EC50": 1030}, {"smiles": "Cc1nc(C)c([C@H](OC(C)(C)C)C(=O)O)c(N2CCC(C(F)(F)F)CC2)c1-c1ccc(OCCc2ccc(F)cc2)cc1", "note": "[Example 74, (S)-2-(tert-butoxy)-2-(5-(4-(4-fluorophenethoxy)phenyl)-2,6-dimethyl-4-(4-(trifluoromethyl)piperidin-1-yl)pyridin-3-yl)acetic acid]", "EC50": 379}, {"smiles": "CCC1(C)CCN(c2c(-c3ccc(OCCc4ccc(F)cc4)cc3)c(C)nc(C)c2[C@H](OC(C)(C)C)C(=O)O)CC1", "note": "[Example 75, (S)-2-(tert-butoxy)-2-(4-(4-ethyl-4-methylpiperidin-1-yl)-5-(4-(4-fluorophenethoxy)phenyl)-2,6-dimethylpyridin-3-yl)acetic acid]", "EC50": 4}, {"smiles": "Cc1nc(C)c([C@H](OC(C)(C)C)C(=O)O)c(N2CCC(C)CC2)c1-c1ccc(OCCc2ccc(F)cc2)cc1", "note": "[Example 76, (S)-2-(tert-butoxy)-2-(5-(4-(4-fluorophenethoxy)phenyl)-2,6-dimethyl-4-(4-methylpiperidin-1-yl)pyridin-3-yl)acetic acid]", "EC50": 17}, {"smiles": "COC1(C)CCN(c2c(-c3ccc(OCCc4ccc(F)cc4)cc3)c(C)nc(C)c2[C@H](OC(C)(C)C)C(=O)O)CC1", "note": "[Example 77, (S)-2-(tert-butoxy)-2-(5-(4-(4-fluorophenethoxy)phenyl)-4-(4-methoxy-4-methylpiperidin-1-yl)-2,6-dimethylpyridin-3-yl)acetic acid]", "EC50": 2}, {"smiles": "Cc1nc(C)c([C@H](OC(C)(C)C)C(=O)O)c(N2CCC(C)(C#N)CC2)c1-c1ccc(OCCc2ccc(F)cc2)cc1", "note": "[Example 78, (S)-2-(tert-butoxy)-2-(4-(4-cyano-4-methylpiperidin-1-yl)-5-(4-(4-fluorophenethoxy)phenyl)-2,6-dimethylpyridin-3-yl)acetic acid]", "EC50": 4}]}]}
